# In US20090305894A1, “use of sulfonanilides as herbicide” (priority 2005, published 2009):
# What was measured:
# Type in all cases: in vivo
# [1] = test system: paddy rice seedlings (cultivar: Nihonbare); experiment: Herbicide damage on transplanted paddy rice (Test Example 2, Table 9); settings: 60 g ai/ha, applied to water surface 5 days after transplantation, rated after 3 weeks; 100% = complete withering, 0% = no damage
# Procedure: (§1) The formulations of active compounds were obtained as emulsions by mixing 1 part by weight of the active compound with the carrier and emulsifier in the described amounts. The formulations were diluted with water so as to adjust a prescribed dosage.
# In a greenhouse each three paddy rice seedlings (cultivar: Nihonbare) were transplanted (transplantation depth 2 cm) in each pot filled with 500 cm^2 of paddy field soil and covered with water in about 2 to 3 cm depth. After 5 days from the transplantation, prescribed diluted solutions of the formulations of the respective active compounds obtained in the same manner as in Test Example 1 were applied to the water surface of each pot. After the treatment, the water depth of 3 cm was kept. The herbicide damage was investigated after 3 weeks of the treatment. The herbicide damage was rated as 100% in the case of complete withering and 0% in the case of no herbicide damage. When the herbicide damage was 20% or lower, the safety as a paddy rice herbicide was evaluated to be excellent. As the representative examples, the test results of the compound Nos. 3, 4, 5, 6, 7, 70, 115, 127 and 128, and comparative compound C-2 are shown in Table 9.
# [2] = test system: Scirpus juncoides Roxburgh (resistant to sulfonylurea type herbicide); experiment: Herbicidal efficacy test to weeds resistant to sulfonylurea type herbicide (Test Example 1, applied on water surface, Table 8); settings: 60 g ai/ha, applied on water surface at beginning of sprouting, rated after 3 weeks; 100% = complete withering, 0% = no effect
# Procedure: (§2) Preparation of formulation of active compound
# (§3) Carrier: DMF 5 parts by weight
# (§4) Emulsifier: benzyloxypolyglycol ether 1 part by weight
# as §1
# (§5) In a greenhouse respective seeds of Scirpus juncoides Roxburgh (from Hokkaido, Japan) and Lindernia procumbens Philcox (from Saitama, Japan), which are confirmed to have resistance to a sulfonylurea type herbicide, were inoculated in pots filled with 500 cm^2 of paddy field soil and water was poured to the pot in about 2 to 3 cm depth. At the beginning of sprouting of the weeds, prescribed diluted solutions of the formulations of the respective active compounds obtained by the above-mentioned manner were applied on the water surface. After the treatment water depth of 3 cm was kept. The herbicidal effect was investigated after 3 weeks of the treatment. The herbicidal effect was rated as 100% in the case of complete withering and 0% in the case of no herbicidal effect. When the herbicidal effect was 80% or higher, the practical effectiveness as herbicides is recognized. As the representative examples, the test results of the compound Nos. 1, 3, 4, 5, 6, 7, 13, 70, 127, 128 and 130 are shown in Table 8.
# [3] = test system: Lindernia procumbens Philcox (resistant to sulfonylurea type herbicide); experiment: as above; settings: 60 g ai/ha, applied on water surface at beginning of sprouting, rated after 3 weeks; 100% = complete withering, 0% = no effect
# Procedure: as §2, §3, §4, §1, §5
# [4] = test system: Cyperus esculntus; experiment: Irrigated directly seeded paddy rice, herbicidal effect, spraying to stems and leaves after sprouting (Test Example 3, Table 11); settings: 20 g ai/ha, rated after 3 weeks
# Procedure: as §1
# (§6) In a greenhouse seeds of rice (cultivar: Balilla) and weeds (Brachiaria plantaginea, Cyperus esculntus, Cyperus iria L., Echinochloa colonum, Leptochloa chinensis, Ipomoea purpurea, and Sesbania exaltata) were inoculated on the surface layers of pots filled with 100 cm^2 of paddy field soil and covered with soil. Water was poured to produce wet state (water level 0 cm). The prescribed diluted solutions of the formulations of the respective active compounds obtained in the same manner as in Test Example 1 were sprayed on the soil of some pots on completion of the seeding and the solutions of the agents were sprayed over the plants from the above in the rest of the pots after the respective sample plants were grown in first- to third-1 eaf stage in the greenhouse. After one day from the treatment with the compound, water was poured in 3 cm depth. The herbicidal effects and herbicide damage on rice of the respective compounds were investigated after 3 weeks from the treatment. The herbicidal effect and herbicide damage on the rice were rated as 100% in the case of complete withering and 0% in the case of no herbicidal effect or no harm. When herbicidal effect was 80% or higher, it was determined to be practically applicable as herbicides. When the herbicide damage was 20% or lower, the safety of the herbicide was evaluated to be excellent.
# [5] = test system: Ipomoea purpurea; experiment: as above; settings: 20 g ai/ha, rated after 3 weeks
# Procedure: as §1, §6
# [6] = test system: Sesbania exaltata; experiment: as above; settings: 20 g ai/ha, rated after 3 weeks
# Procedure: as §1, §6
# [7] = test system: Brachiaria plantaginea; experiment: as above; settings: 20 g ai/ha, rated after 3 weeks
# Procedure: as §1, §6
# [8] = test system: Cyperus iria L.; experiment: as above; settings: 20 g ai/ha, rated after 3 weeks
# Procedure: as §1, §6
# [9] = test system: Echinochloa colonum; experiment: as above; settings: 20 g ai/ha, rated after 3 weeks
# Procedure: as §1, §6
# [10] = test system: Cyperus esculntus; experiment: Irrigated directly seeded paddy rice, herbicidal effect, spraying to soil before sprouting (Test Example 3, Table 10); settings: 20 g ai/ha, rated after 3 weeks
# Procedure: as §1, §6
# [11] = test system: Ipomoea purpurea; experiment: as above; settings: 20 g ai/ha, rated after 3 weeks
# Procedure: as §1, §6
# [12] = test system: Sesbania exaltata; experiment: as above; settings: 20 g ai/ha, rated after 3 weeks
# Procedure: as §1, §6
# [13] = test system: Leptochloa chinensis; experiment: as above; settings: 20 g ai/ha, rated after 3 weeks
# Procedure: as §1, §6
# [14] = test system: Brachiaria plantaginea; experiment: as above; settings: 20 g ai/ha, rated after 3 weeks
# Procedure: as §1, §6
# [15] = test system: Cyperus iria L.; experiment: as above; settings: 20 g ai/ha, rated after 3 weeks
# Procedure: as §1, §6
# [16] = test system: Echinochloa colonum; experiment: as above; settings: 20 g ai/ha, rated after 3 weeks
# Procedure: as §1, §6
# [17] = test system: rice (cultivar: Balilla); experiment: Irrigated directly seeded paddy rice, herbicide damage, spraying to soil before sprouting (Test Example 3, Table 10); settings: 20 g ai/ha, rated after 3 weeks
# Procedure: as §1, §6
# [18] = test system: rice (cultivar: Balilla); experiment: Irrigated directly seeded paddy rice, herbicide damage, spraying to stems and leaves after sprouting (Test Example 3, Table 11); settings: 20 g ai/ha, rated after 3 weeks
# Procedure: as §1, §6
# [19] = test system: Setaria vividis; experiment: Herbicidal effect on weeds in dry field, spraying treatment on soil before sprouting (Test Example 4, Table 12); settings: 80 g ai/ha, spraying to soil before sprouting, rated after 3 weeks
# Procedure: as §1, §6
# (§7) In a greenhouse one seed each of crops in dry field (Triticum aestivum and Glycine max) and weeds (Echinochloa crus-gali and Setaria vividis) were inoculated in the surface layer in one pot filled with 16 cm^2 of dry field soil and covered with soil. The prescribed diluted solutions of the formulations of the respective active compounds obtained in the same manner as in Test Example 1 were sprayed to the soil upon the inoculation. The herbicidal effect and herbicide damage on crops of the respective compounds were investigated after 3 weeks from the treatment. Evaluations of the herbicidal effect and herbicide damage were carried out in the same manner as in Test Example 3. As the representative example, the test results of compound No. 1 and 24, and the comparative compound C-1 are shown in Table 12.
# [20] = test system: Echinochloa crus-gali; experiment: as above; settings: 80 g ai/ha, spraying to soil before sprouting, rated after 3 weeks
# Procedure: as §1, §6, §7
# [21] = test system: Glycine max; experiment: Herbicide damage to crops in dry field, spraying treatment on soil before sprouting (Test Example 4, Table 12); settings: 80 g ai/ha, rated after 3 weeks
# Procedure: as §1, §6, §7
# [22] = test system: Triticum aestivum; experiment: as above; settings: 80 g ai/ha, rated after 3 weeks
# Procedure: as §1, §6, §7
Compound,Herbicide damage on transplanted paddy rice [1] [%],Herbicidal effect to sulfonylurea resistant weeds: Scirpus juncoides Roxburgh (from Hokkaido) [2] [%],Herbicidal effect to sulfonylurea resistant weeds: Lindernia procumbens Philcox (from Saitama pref.) [3] [%],further results
"COCc1cccc(C(O)c2nc(OC)cc(OC)n2)c1NS(=O)(=O)C(F)F (stereo not drawn) [C-2, reference compound]",30,–,–,–
"CCOc1ccccc1OS(=O)(=O)NC(=O)Nc1nc(OC)cc(OC)n1 [C-3, Ethoxysulfuron, reference compound]",–,10,10,–
"COC(=O)c1ccccc1CS(=O)(=O)NC(=O)Nc1nc(OC)cc(OC)n1 [C-4, Bensulfuron-methyl, reference compound]",–,10,10,–
"COc1cc(OC)nc(C(O)c2ccc(F)c(F)c2NS(=O)(=O)C(F)F)n1 (stereo not drawn) [Compound No. 3, 2,3-Difluoro-6-[1-(4,6-dimethoxypyrimidin-2-yl)-1-hydroxymethyl]-N-difluoromethanesulfonanilide]",10,100,100,–
COc1nc(OC)nc(C(=O)c2cccc(Cl)c2N(C)S(=O)(=O)C(F)F)n1 [compound 2],–,–,–,Herbicidal effect Cyperus esculntus [4]: 100%; Herbicidal effect Ipomoea purpurea [5]: 100%; Herbicidal effect Sesbania exaltata [6]: 100%; Herbicidal effect Brachiaria plantaginea [7]: 100%; Herbicidal effect Cyperusiria L. [8]: 100%; Herbicidal effect Echinochloa colonum [9]: 100%; Herbicidal effect Cyperus esculntus [10]: 90%; Herbicidal effect Ipomoea purpurea [11]: 80%; Herbicidal effect Sesbania exaltata [12]: 80%; Herbicidal effect Leptochloa chinensis [13]: 90%; Herbicidal effect Brachiaria plantaginea [14]: 80%; Herbicidal effect Cyperusiria L. [15]: 100%; Herbicidal effect Echinochloa colonum [16]: 80%; Herbicide damage on Rice [17]: 30%; Herbicide damage on Rice [18]: 10%
"COc1cc(OC)nc(C(O)c2ccc(Cl)c(F)c2NS(=O)(=O)C(F)F)n1 (stereo not drawn) [compound 4, 2-fluoro-3-chloro-6-[1-(4,6-dimethoxypyrimidin-2-yl)-1-hydroxymethyl]-N-difluoromethanesulfonanilide]",10,100,100,–
COc1cc(OC)nc(C(O)c2ccc(F)cc2NS(=O)(=O)C(F)F)n1 (stereo not drawn) [compound 5],0,100,100,–
COc1cc(OC)nc(C(O)c2c(F)cccc2NS(=O)(=O)C(F)F)n1 (stereo not drawn) [compound 6],10,100,100,–
COc1cc(OC)nc(C(O)c2c(F)ccc(F)c2NS(=O)(=O)C(F)F)n1 (stereo not drawn) [compound 7],10,100,100,–
COCN(c1c(F)cccc1C(=O)c1nc(OC)nc(OC)n1)S(=O)(=O)C(F)F [compound 24],–,–,–,Herbicidal effect Setaria vividis [19]: 90%; Herbicidal effect Echinochloa crus-gali [20]: 80%; Herbicide damage Glycine max [21]: 0%; Herbicide damage Triticum aestivum [22]: 0%
COc1cc(OC)nc(C(O)c2ccc(F)c(C)c2NS(=O)(=O)C(F)F)n1 (stereo not drawn) [compound 70],10,100,90,–
COc1nc(OC)nc(C(=O)c2cccc(OC)c2N(C)S(=O)(=O)C(F)F)n1 [compound 115],0,–,–,–
COc1cc(OC)nc(C(O)c2ccc(F)c(OC)c2NS(=O)(=O)C(F)F)n1 (stereo not drawn) [compound 127],0,100,90,–
COc1cc(OC)nc(C(O)c2ccc(Cl)c(OC)c2NS(=O)(=O)C(F)F)n1 (stereo not drawn) [compound 128],0,90,100,–
CCOc1cccc(C(O)c2nc(OC)cc(OC)n2)c1NS(=O)(=O)C(F)F (stereo not drawn) [compound 130],–,100,100,–
